Results taken from the NIST ThermoML archive (doi:10.1021/acs.jced.9b00424).

Experiment: xn = mol fraction of the nth substance listed
Conditions: for viscosity: 100 kPa, Concentric cylinders viscometry; for viscosity / mass density: Liquid; for mass density: 101 kPa, Vibrating tube method; for surface tension liquid-gas: Pendant drop shape

CCCCCCCC(=O)O [octanoic acid] + CC(C)[C@@H]1CC[C@@H](C)C[C@H]1O
Conditions	mass density [kg/m3]	surface tension liquid-gas [mN/m]	viscosity [mPa·s]
323.15 K, x2 = 0	886.2	–	–
323.15 K, x2 = 0.25	884.6	–	–
323.15 K, x2 = 0.333	884	–	–
323.15 K, x2 = 0.5	882.6	–	4.79
323.15 K, x2 = 0.667	880.9	–	5.78
323.15 K, x2 = 0.75	879.5	–	6.12
323.52 K, x2 = 0.667	–	19.52	–
323.58 K, x2 = 0.25	–	20.1	–
323.61 K, x2 = 0.75	–	20.72	–
327.39 K, x2 = 0	–	24.46	–
328.11 K, x2 = 0.75	–	20.22	–
328.15 K, x2 = 0	880.9	–	2.609
328.15 K, x2 = 0.25	879.5	–	3.25
328.15 K, x2 = 0.333	878.9	–	3.51
328.15 K, x2 = 0.5	877.6	–	4.11
328.15 K, x2 = 0.667	875.9	–	4.83
328.15 K, x2 = 0.75	874.4	–	5.05
328.35 K, x2 = 0.5	–	20.44	–
328.41 K, x2 = 0.333	–	22.47	–
328.48 K, x2 = 0.667	–	19.19	–
328.93 K, x2 = 0.25	–	19.73	–
331.72 K, x2 = 0	–	23.43	–
332.7 K, x2 = 0.75	–	19.65	–
332.78 K, x2 = 0.333	–	21.79	–
332.97 K, x2 = 0.5	–	19.47	–
333.15 K, x2 = 0	876	–	2.372
333.15 K, x2 = 0.25	874.7	–	2.9
333.15 K, x2 = 0.333	874.1	–	3.1
333.15 K, x2 = 0.5	872.9	–	3.56
333.15 K, x2 = 0.667	871.2	–	4.09
333.15 K, x2 = 0.75	869.4	–	4.22
333.27 K, x2 = 0.667	–	18.98	–
333.38 K, x2 = 0.25	–	19.41	–
338.15 K, x2 = 0	871.4	–	2.166
338.15 K, x2 = 0.25	870.1	–	2.595
338.15 K, x2 = 0.333	869.6	–	2.753
338.15 K, x2 = 0.5	868.4	–	3.11
338.15 K, x2 = 0.667	866.7	–	3.49
338.15 K, x2 = 0.75	864.6	–	3.56
343.15 K, x2 = 0	867.1	–	1.985
343.15 K, x2 = 0.25	865.9	–	2.336
343.15 K, x2 = 0.333	865.4	–	2.461
343.15 K, x2 = 0.5	864.3	–	2.732
343.15 K, x2 = 0.667	862.6	–	3.02
343.15 K, x2 = 0.75	860	–	3.04
348.15 K, x2 = 0	863	–	1.826
348.15 K, x2 = 0.25	862	–	2.113
348.15 K, x2 = 0.333	861.5	–	2.212
348.15 K, x2 = 0.5	860.4	–	2.419
348.15 K, x2 = 0.667	858.7	–	2.625
348.15 K, x2 = 0.75	855.7	–	2.635
353.15 K, x2 = 0	859.3	–	1.683
353.15 K, x2 = 0.25	858.3	–	1.921
353.15 K, x2 = 0.333	857.9	–	1.996
353.15 K, x2 = 0.5	856.7	–	2.156
353.15 K, x2 = 0.667	855.1	–	2.301
353.15 K, x2 = 0.75	851.6	–	2.324
